Source: paper PMC11466185, “Mechanisms and efficacy of small molecule latency-promoting agents to inhibit HIV reactivation ex vivo” (JCI Insight, 2024)
Several values for one entry are separate records, joined by “and”; a condition that tells them apart may be missing. Equal values may be shown once.

Tested on: HIV transcripts (TAR, LLTR, Pol, PolyA, TatRev)
Assay: Cell-associated HIV transcripts (RT-ddPCR) 6 days after anti-CD3/CD28 activation of PBMCs from ART-suppressed PWH
Assay type: cell-based
Conditions: for LLTR/TAR / PolyA/LLTR / TatRev/PolyA: DMSO+CD3/28 = 1, Fig 4B, C and D; for LLTR HIV transcripts (DMSO αCD3/28 = 100): 6 days after αCD3/28 activation, each column one participant; for Pol / PolyA / TAR / TatRev: DMSO αCD3/28 = 100, Fig 4A
Description: Next, we evaluated the ability of the candidate LPAs to sustain the inhibitory effects during a prolonged ex vivo culture. To this end, PBMCs were cultured in the presence of individual drugs in DMSO or in DMSO alone as control, activated (anti-CD3/CD28), and harvested after 6 days. […] However, we decided to test the drug on day 6 because extra cells were available from some study participants.
Each drug was tested in PBMCs from at least 6 ART-suppressed study participants (except for KRIBB11, n = 5). PBMCs were aliquoted into wells at 6 × 10^6 cells/well. After activation, the cells were cultured with antiretrovirals in the presence of individual drugs in DMSO or DMSO alone as control. All conditions were tested in the presence of CD3/28 T cell–activating beads, except for the unactivated DMSO condition. After 6 days, total cellular RNA was extracted, and the progression through different stages of HIV transcription was quantified by measuring the levels of initiated (TAR), 5′ elongated (LLTR), midtranscribed/unspliced (Pol), completed (PolyA), and multiply spliced (TatRev) HIV transcripts. (A) The levels of all HIV transcripts were normalized to 1 μg of total cellular RNA and expressed as a percentage of the activated DMSO control (% of activated DMSO). Medians are shown as well as the individual values per study participant in different colors. (B–D) The effect of each drug on HIV transcriptional progression after activation was analyzed by the ratio of one HIV transcript to another. Ratios are independent of HIV infection frequency or normalization to cell numbers. Shown are the proportion of (B) all HIV transcripts that are elongated (LLTR/TAR), (C) elongated HIV transcripts that are completed (PolyA/LLTR), and (D) completed transcripts that are multiply spliced (TatRev/PolyA). Medians and IQR are presented, along with the individual values per study participant in different colors. P values were calculated using Wilcoxon’s signed-rank test: *P < 0.05.
PBMCs were isolated from fresh venous blood from 16 ART-suppressed HIV-infected study participants using Ficoll density gradient centrifugation. The cells were seeded at 6 × 10^6 cells/well and cultured with antiretrovirals (nevirapine and indinavir) to prevent new infection. On the next day, PBMCs were activated with anti-CD3/CD28–coated beads (Invitrogen) in the presence of 20 U/mL IL-2 and individual drugs in DMSO or DMSO alone as a control. Since we were limited in the PBMC yield per study participant, different study participants were used for different experiments (such as the initial screen, dose response, different time points, and studies in activated vs. unstimulated cells). In addition, the yields of PBMCs were sometimes insufficient to test all drugs for a given question or experiment.
For quantification of cell-associated HIV transcripts, PBMCs were harvested either after 24 hours or after 6 days. The cell viabilities were measured by trypan blue staining; then the cells were pelleted by centrifuging at 300g for 6 minutes and stored at –80°C. For quantification of virion-associated HIV RNA, cell culture supernatant was collected from 6 × 10^6 PBMCs that were treated and activated for 6 days as described above. Residual cells and cellular debris were subsequently removed from the supernatant by differential centrifugation (300g for 6 minutes, then 20,000g for 10 minutes), and the supernatant was stored at –80°C.
Total cellular DNA and RNA were extracted in parallel using Trireagent (Molecular Research Center) according to the manufacturer’s instructions, except for study participants 2147 and 2461 (Figure 4), for whom DNA and RNA were extracted using the QIAGEN AllPrep DNA/RNA/miRNA Universal Kit with on-column DNase I treatment of the RNA and the manufacturer’s modification to enhance recovery of short transcripts.

CC(=O)N[C@@H]1CCC[C@H](C(=O)Nc2cc(-c3cnn4c3CC(C)(C)C4)c(Cl)cn2)C1 [AZD4573]
LLTR/TAR (participant 2027): 0.3501
PolyA/LLTR (participant 2027): 0.2124
TatRev/PolyA (participant 2027): 0
LLTR/TAR (participant 2147a): 0.6972
PolyA/LLTR (participant 2147a): 0.4073
TatRev/PolyA (participant 2147a): 0.2876
LLTR/TAR (participant 2161): 0.7137
PolyA/LLTR (participant 2161): 1.39
TatRev/PolyA (participant 2161): 0
LLTR/TAR (participant 2461): 1.973
PolyA/LLTR (participant 2461): 0.4151
PolyA/LLTR (participant 2747): 0.4425
LLTR/TAR (participant 2750): 0.6631
PolyA/LLTR (participant 2750): 1.188
TatRev/PolyA (participant 2750): 0.2617

CNc1ccc([N+](=O)[O-])c(Nc2ccc3[nH]ncc3c2)n1 [KRIBB11]
LLTR HIV transcripts (DMSO αCD3/28 = 100) (2.5μM): 71.6 and 44.44 and 38.82 and 82.14 and 98.47
Pol (participant 2027): 73.68
PolyA (participant 2027): 106.67
TAR (participant 2027): 139.39
TatRev (participant 2027): 11.11
LLTR/TAR (participant 2027): 0.5893
PolyA/LLTR (participant 2027): 1.299
TatRev/PolyA (participant 2027): 0.1042
Pol (participant 2147a): 33.33
PolyA (participant 2147a): 22.8
TAR (participant 2147a): 563.24
TatRev (participant 2147a): 46.99
LLTR/TAR (participant 2147a): 0.1271
PolyA/LLTR (participant 2147a): 0.3184
TatRev/PolyA (participant 2147a): 1.2464
Pol (participant 2256): 169.23
PolyA (participant 2256): 89.76
TAR (participant 2256): 111.27
TatRev (participant 2256): 84.19
LLTR/TAR (participant 2256): 0.8849
PolyA/LLTR (participant 2256): 0.9116
TatRev/PolyA (participant 2256): 1.489
PolyA (participant 2461): 176.92
TAR (participant 2461): 67.9
LLTR/TAR (participant 2461): 0.5717
PolyA/LLTR (participant 2461): 4.558
Pol (participant 2747): 8.97
PolyA (participant 2747): 19.67
TAR (participant 2747): 56.38
TatRev (participant 2747): 30

CN1CC[C@H](c2c(O)cc(O)c3c(=O)cc(-c4ccccc4Cl)oc23)[C@H](O)C1 [alvocidib]
LLTR/TAR (participant 150b): 0.5959
PolyA/LLTR (participant 150b): 1.023
TatRev/PolyA (participant 150b): 0.12
LLTR/TAR (participant 1379): 0.8323
PolyA/LLTR (participant 1379): 0.9327
LLTR/TAR (participant 2027): 0.4309
PolyA/LLTR (participant 2027): 0.9713
TatRev/PolyA (participant 2027): 0.1413
LLTR/TAR (participant 2147a): 0.3521
PolyA/LLTR (participant 2147a): 0.4486
TatRev/PolyA (participant 2147a): 0.2041
LLTR/TAR (participant 2161): 1.064
PolyA/LLTR (participant 2161): 0.55
LLTR/TAR (participant 2256): 0.6179
PolyA/LLTR (participant 2256): 0.6868
TatRev/PolyA (participant 2256): 0.617
LLTR/TAR (participant 2461): 1.513
PolyA/LLTR (participant 2461): 1.443
LLTR/TAR (participant 2747): 0
LLTR/TAR (participant 5557): 0.4901
PolyA/LLTR (participant 5557): 0.9442

CCc1cnn2c(NCc3ccc[n+]([O-])c3)cc(N3CCCC[C@H]3CCO)nc12 [dinaciclib]
LLTR/TAR (participant 150b): 0.1874
PolyA/LLTR (participant 150b): 1.735
TatRev/PolyA (participant 150b): 1.49
LLTR/TAR (participant 2027): 0.2578
PolyA/LLTR (participant 2027): 0.8564
TatRev/PolyA (participant 2027): 0.1946
LLTR/TAR (participant 2147a): 2.005
PolyA/LLTR (participant 2147a): 0.4014
TatRev/PolyA (participant 2147a): 0.7191
LLTR/TAR (participant 2161): 1.155
PolyA/LLTR (participant 2161): 1.48
TatRev/PolyA (participant 2161): 1.061
LLTR/TAR (participant 2461): 2.038
PolyA/LLTR (participant 2461): 3.944
LLTR/TAR (participant 2750): 1.778
PolyA/LLTR (participant 2750): 2.886
TatRev/PolyA (participant 2750): 0.2646

CO[C@H]([C@@H](C)[C@H]1O[C@]1(C)C[C@H](C)/C=C/C=C(\C)[C@H]1O[C@@H](CC(=O)O)CC[C@@H]1C)[C@@H](C)O [herboxidiene]
LLTR HIV transcripts (DMSO αCD3/28 = 100) (5nM): 64.2 and 58.48 and 54.61 and 276.32 and 371.71 and 49.79 and 55 and 16.86
Pol (participant 150b): 43.29
PolyA (participant 150b): 23.53
TAR (participant 150b): 92.09
TatRev (participant 150b): 2.69
LLTR/TAR (participant 150b): 0.5407
PolyA/LLTR (participant 150b): 0.4726
TatRev/PolyA (participant 150b): 0.11
Pol (participant 1379): 47.94
PolyA (participant 1379): 28.08
TAR (participant 1379): 40.01
TatRev (participant 1379): 171.43
LLTR/TAR (participant 1379): 1.462
PolyA/LLTR (participant 1379): 0.4801
TatRev/PolyA (participant 1379): 6.105
Pol (participant 2027): 133.33
PolyA (participant 2027): 36.92
TAR (participant 2027): 82.42
TatRev (participant 2027): 0
LLTR/TAR (participant 2027): 0.6673
PolyA/LLTR (participant 2027): 0.6713
Pol (participant 2147a): 105.88
PolyA (participant 2147a): 21.76
TAR (participant 2147a): 362.23
TatRev (participant 2147a): 28.42
LLTR/TAR (participant 2147a): 0.1772
PolyA/LLTR (participant 2147a): 0.339
TatRev/PolyA (participant 2147a): 0.3013
Pol (participant 2161): 169.45
PolyA (participant 2161): 268.67
TAR (participant 2161): 215.96
TatRev (participant 2161): 176.87
LLTR/TAR (participant 2161): 1.7212
PolyA/LLTR (participant 2161): 0.72
TatRev/PolyA (participant 2161): 0.6583
Pol (participant 2256): 18.46
PolyA (participant 2256): 16.27
TAR (participant 2256): 31.94
TatRev (participant 2256): 1.4
LLTR/TAR (participant 2256): 0.5278
PolyA/LLTR (participant 2256): 0.9648
PolyA (participant 2461): 1692.31
TAR (participant 2461): 52.19
LLTR/TAR (participant 2461): 5.294
PolyA/LLTR (participant 2461): 6.125
LLTR/TAR (participant 2747): 0
Pol (participant 5557): 23.16
PolyA (participant 5557): 23.33
TAR (participant 5557): 83.93
TatRev (participant 5557): 0
LLTR/TAR (participant 5557): 0.6507
PolyA/LLTR (participant 5557): 0.4272

COc1ccc(-c2cc(=O)c3c(O)cc(O)c(-c4cc(-c5cc(=O)c6c(O)cc(O)cc6o5)ccc4OC)c3o2)cc1 [isoginkgetin]
LLTR/TAR (participant 150b): 0.8798
PolyA/LLTR (participant 150b): 1.092
TatRev/PolyA (participant 150b): 1.01
LLTR/TAR (participant 1379): 1.373
PolyA/LLTR (participant 1379): 0.4663
LLTR/TAR (participant 2027): 0.7253
PolyA/LLTR (participant 2027): 0.8811
LLTR/TAR (participant 2147a): 0.06726
PolyA/LLTR (participant 2147a): 1.437
TatRev/PolyA (participant 2147a): 0.8892
LLTR/TAR (participant 2161): 0.6564
PolyA/LLTR (participant 2161): 0.57
LLTR/TAR (participant 2256): 1.751
PolyA/LLTR (participant 2256): 0.07578
LLTR/TAR (participant 2461): 1.166
PolyA/LLTR (participant 2461): 0.2875
LLTR/TAR (participant 2747): 0
LLTR/TAR (participant 5557): 0.8133
PolyA/LLTR (participant 5557): 0.9591
TatRev/PolyA (participant 5557): 0.5795

O=c1c(O)c(-c2ccc(O)c(O)c2)oc2cc(O)cc(O)c12 [quercetin]
LLTR/TAR (participant 150b): 0.7842
PolyA/LLTR (participant 150b): 1.289
TatRev/PolyA (participant 150b): 0.75
LLTR/TAR (participant 2027): 0.9301
PolyA/LLTR (participant 2027): 0.981
TatRev/PolyA (participant 2027): 0.6894
LLTR/TAR (participant 2147a): 0.08494
PolyA/LLTR (participant 2147a): 0.5196
TatRev/PolyA (participant 2147a): 0.8518
PolyA/LLTR (participant 2161): 0.79
TatRev/PolyA (participant 2161): 0.8634
LLTR/TAR (participant 2256): 0.9386
PolyA/LLTR (participant 2256): 0.8949
LLTR/TAR (participant 2461): 1.332
TatRev/PolyA (participant 2747): 0
